Data published in patent US8722616B2, “Anti-HIV peptides and methods of use thereof” (priority 2009, dated 2014).
Non-standard residues stand in square brackets, D forms with d. Residues, ends and D or L forms follow the SMILES beside them. No end group written: not given here. Phg = N[C@H](C(=O)O)c1ccccc1

Columns and labels:
HIV-1IIIB = experiment: microbe, parasite or virus in culture
Description: (§1) Anti-HIV cytopathic effect inhibition assays were conducted as described (Buckheit et al. (1995) Antimicrob. Agents Chemother., 39:2718-2727). In brief, serially diluted peptides were added to a 96-well round bottom microtiter plate in triplicate. CEM-SS cells at a concentration of 2.5×10^3 cells per well and HIV-1IIIB at the appropriate pre-determined titer were sequentially added to the microtiter plate. The cultures were incubated at 5% CO2/37° C. for six days. Following the incubation, the microtiter plates were stained with XTT tetrazolium dye to evaluate the efficacy and toxicity of the test compound(s).
as §1, with “Cytopathic Effect (CPE) Inhibition Assay: The CPE assay was performed” for “Anti-HIV cytopathic effect inhibition assays were conducted”, “as previously” for “as”, “Briefly,” for “In brief,”, “compound was” for “peptides were”

[1] = Cytotoxicity in the CPE assay (XTT, 50% reduction in cell viability); conditions: human
Description: as §1
as §1, with “Cytopathic Effect (CPE) Inhibition Assay: The CPE assay was performed” for “Anti-HIV cytopathic effect inhibition assays were conducted”, “as previously” for “as”, “Briefly,” for “In brief,”, “compound was” for “peptides were”

CEM-SS cells = experiment: as above
Description: as §1
as §1, with “Cytopathic Effect (CPE) Inhibition Assay: The CPE assay was performed” for “Anti-HIV cytopathic effect inhibition assays were conducted”, “as previously” for “as”, “Briefly,” for “In brief,”, “compound was” for “peptides were”

[2] = Table 5, BMAP-27-derived peptides, CEM-SS cells
[3] = Table 1, CEM-SS cells, HIV-1IIIB, six days, 50% inhibition of virus replication
[4] = read-out: TC50, Table 1, CEM-SS cells, six days, 50% reduction in cell viability
[5] = Table 4, LL-37-derived peptides, CEM-SS cells
[6] = >100 μg/ml defined as HIV inactive
[7] = read-out: TC50, Table 2, CEM-S cells
[8] = Table 2, sequence shuffling, CEM-S cells

CC[C@H](C)[C@H](NC(=O)[C@H](CCCCN)NC(=O)[C@H](CCCCN)NC(=O)[C@H](Cc1ccccc1)NC(=O)[C@H](CC(C)C)NC(=O)[C@H](CCCCN)NC(=O)[C@H](CCCCN)NC(=O)[C@@H](NC(=O)[C@H](CCCCN)NC(=O)[C@H](CCCCN)NC(=O)[C@H](CCCNC(=N)N)NC(=O)[C@@H](NC(=O)[C@H](CCCNC(=N)N)NC(=O)[C@H](CCCCN)NC(=O)[C@H](Cc1ccccc1)NC(=O)[C@H](CCCNC(=N)N)NC(=O)CN)c1ccccc1)c1ccccc1)C(=O)N[C@@H](CO)C(N)=O [BMAP-18X6X10, GRFKRXRKKXKKLFKKIS] (H-GRFKR[Phg]RKK[Phg]KKLFKKIS-NH2)
EC50 (HIV-1IIIB; [2]): 0.68 µM | CC50 at 6 days ([1]; CEM-SS cells): 10.2 µM

INLKAIAALAKKLL [Mastoparan M, reference compound]
EC50 (HIV-1IIIB; [3]): > 67.6 µM | CC50 (CEM-SS cells; [4]): > 67.6 µM

GFLSILKKVLPKVMAHMK-NH2 [Melectin, reference compound]
CC50 (CEM-SS cells; [4]): 7.75 µM

NLVSGLIEARKYLEQLHRKLKNRKV [Peptide D88]
EC50 (HIV-1IIIB; [3]): > 33.3 µM

IKWKKLLRAAKRIL-NH2 [Peptide D74]
EC50 (HIV-1IIIB; [3]): > 57.6 µM | CC50 (CEM-SS cells; [4]): 1.3 µM

GIKQFKRIVQRIKDFLRNLV-NH2 [GI-20Q16]
EC50 (HIV-1IIIB; [5]): 0.91 µM | CC50 at 6 days [1]: 13.7 µM

GRFKRIRKKLKKLFKKIS-NH2 [BMAP-18I6L10]
EC50 (HIV-1IIIB; [2]): > 44 µM | CC50 at 6 days [1]: 2.79 µM

CC[C@H](C)[C@H](NC(=O)CN)C(=O)N[C@@H](CCCCN)C(=O)N[C@@H](CCC(=O)O)C(=O)N[C@H](C(=O)N[C@@H](CCCCN)C(=O)N[C@@H](CCCNC(=N)N)C(=O)N[C@H](C(=O)N[C@H](C(=O)N[C@@H](CCC(N)=O)C(=O)N[C@@H](CCCNC(=N)N)C(=O)N[C@H](C(=O)N[C@@H](CCCCN)C(=O)N[C@@H](CC(=O)O)C(=O)N[C@@H](Cc1ccccc1)C(=O)N[C@@H](CC(C)C)C(=O)N[C@@H](CCCNC(=N)N)C(=O)N[C@@H](CC(N)=O)C(=O)N[C@@H](CC(C)C)C(=O)N[C@H](C(N)=O)C(C)C)[C@@H](C)CC)C(C)C)[C@@H](C)CC)c1ccccc1 [GI-20X17, GIKEXKRIVQRIKDFLRNLV] (H-GIKE[Phg]KRIVQRIKDFLRNLV-NH2)
EC50 (HIV-1IIIB; [5]): > 40.6 µM | CC50 at 6 days ([1]; CEM-SS cells): 7.3 µM

FKRIVQRIKDFLR-NH2 [FK-13]
EC50 (HIV-1IIIB; [6]): 5.9 µg/mL | EC50 (HIV-1IIIB; [5]): 3.4 µM | CC50 at 6 days [1]: 10.4 µM

GIWSDLAEIIKKF [Peptide B6]
CC50 (CEM-SS cells; [7]): > 65.8 µM

RQRVEELSKFSKKGAAARRRK [Misgurin, reference compound]
EC50 (HIV-1IIIB; [3]): > 40 µM | CC50 (CEM-SS cells; [4]): > 40 µM

LLGDLLRKSKEKIGKEFKRIVQR-NH2 [LL-23]
CC50 at 6 days [1]: > 35.4 µM

FRPALIVRTKGTRL [Hyposin-5, reference compound]
EC50 (HIV-1IIIB; 1IIIB): > 61.4 µM | CC50 [1]: > 61.4 µM

LLKELWTKIKGAGKAVLGKIKGLL [Ponericin L2, reference compound]
EC50 (HIV-1IIIB; [3]): 1.4 µM | CC50 (CEM-SS cells; [4]): 24.7 µM

H-GFKDLLKGAAKALVKTVLF-NH2 [Ascaphin-8, reference compound]
CC50 (CEM-SS cells): 2.9 µM

H-GLADFLNKAVGKVVDFVKS-NH2 [Desertcolin 1, reference compound]
EC50 (HIV-1IIIB; 1IIIB): > 49.9 µM | CC50 (CEM-SS cells): > 49.9 µM

GWFDVVKHIAKRF-NH2 [Peptide D70]
CC50 (CEM-SS cells; [4]): 10.6 µM

GIKEFKREFQRIKDFLRNLV-NH2 [GI-20EF]
EC50 (HIV-1IIIB; [5]): 1.6 µM | CC50 at 6 days [1]: 9.9 µM

VDKPDYRPRPRPPNM [Metalnikowin I, reference compound]
EC50 (HIV-1IIIB; [3]): > 54.4 µM | CC50 (CEM-SS cells; [4]): > 54.4 µM

GAWKNFWSSLRKGFYDGEAGRAIRR [Peptide D94, reference compound]
EC50 (HIV-1IIIB; [3]): > 34.1 µM | CC50 (CEM-SS cells; [4]): > 34.1 µM

GIIDIAKKLFESW [Peptide B3]
EC50 (HIV-1IIIB; 1IIIB): 20.1 µM | CC50 (CEM-SS cells): > 65.8 µM

H-GLLGLLGSVVSHVVPAIVGHF-NH2 [Maculatin 1.3, reference compound]
CC50 (CEM-SS cells): 8.02 µM

GLFDIIKKIAESW [Peptide B1]
EC50 (HIV-1IIIB; [8]): 11.7 µM | CC50 (CEM-SS cells; [7]): 37 µM

GIKEFKRIVQRIKDFLRNLV-NH2 [GI-20]
EC50 (HIV-1IIIB; [5]): 1.08 µM | CC50 at 6 days [1]: 22.7 µM

GMASKAGAIAGKIAKVALKAL-NH2 [PGLa, reference compound]
EC50 (HIV-1IIIB; [3]): > 50.8 µM | CC50 (CEM-SS cells; [4]): > 50.8 µM

GFGKAFHSVSNFAKKHKTA-NH2 [Styelin A, reference compound]
CC50 (CEM-SS cells; [4]): > 48.5 µM

LLGDLLRKSKEKIGKEFKRIVQRIKDFLRNLVPRTES [LL-37, reference compound]
EC50 (HIV-1IIIB; [6]): 7.3 µg/mL | EC50 (HIV-1IIIB; [5]): 1.6 µM | CC50 at 6 days [1]: 18.4 µM

GFLDIIEKIAKSW [Peptide B7]
EC50 (HIV-1IIIB; [8]): 10.5 µM | CC50 (CEM-SS cells; [7]): > 65.8 µM

GWLKKIESIIDAF [Peptide B8]
EC50 (HIV-1IIIB; [8]): 29.5 µM | CC50 (CEM-SS cells; [7]): > 65.8 µM

RLFDKIRQVIRKF-NH2 [Retro-FK13]
EC50 (HIV-1IIIB; [5]): > 58.1 µM | CC50 at 6 days [1]: 33.7 µM

SKEKIGKEFKRIVQRIKDFLR [SK-21]
anti-HIV activity in words (HIV-1IIIB): active against HIV | EC50 (HIV-1IIIB; [6]): 28.5 µg/mL | EC50 (HIV-1IIIB; [5]): 10.8 µM | CC50 at 6 days ([1]; CEM-SS cells): 22.5 µM
